According to patent US20250092029A1 (THE WISTAR INSTITUTE OF ANATOMY AND BIOLOGY, priority 2022, published 2025):
Where two headings read alike, the source gives them in different places.

Assays:
[1] = target: SARS-CoV-2 Mpro (Severe acute respiratory syndrome coronavirus 2 (2019-nCoV) (SARS-CoV-2), UniProt P0DTD1); assay: biochemical; type: biochemical
[2] = target: cathepsin B (Homo sapiens (Human), UniProt P07858); assay: Cathepsin B enzymatic assay; type: biochemical
Description: Cathepsin B enzymatic assay Assays contained 0.6 nM cathepsin B (RD systems: 953-CY-010), 25 uM Z-LR-AMC, 100 nL of test compound in 100% DMSO, in at total of 10 uL of 50 mM MES, pH 5.0, 150 mM NaCl, 0.05% CHAPS, 5 mM DTT in black low volume 384-well plates. The production of AMC was followed at 5 min intervals at 355 nm excitation, 460 nm emission in an Envision microplate reader (PerkinElmer). Reaction rates were determined by linear regression of the resulting progress curves. […] Nonlinear regression fits of the data to a one-site dose response curve were performed using XLFit (IDBS).

[3] = target: cathepsin L (Homo sapiens (Human), UniProt P07711); assay: Cathepsin L enzymatic assay; type: biochemical
Sequence of cathepsin L (P07711 114-333): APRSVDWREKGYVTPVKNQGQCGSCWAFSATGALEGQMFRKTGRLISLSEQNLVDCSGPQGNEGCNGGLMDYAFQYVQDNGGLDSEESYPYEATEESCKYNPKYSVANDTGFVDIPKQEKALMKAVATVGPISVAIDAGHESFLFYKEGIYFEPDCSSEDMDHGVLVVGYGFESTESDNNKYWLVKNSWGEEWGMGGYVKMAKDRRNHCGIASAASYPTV
Description: Cathepsin L enzymatic assay Assays contained 25 pM cathepsin L (RD systems: 952-CY-010), 5 uM LR-AMC, 100 nL of test compound in 100% DMSO, in at total of 10 uL of 20 mM KPO4, pH 6.0, 150 mM NaCl, 0.005% Tween20, 5 mM DTT in black low volume 384-well plates. The production of AMC was followed at 5 min intervals at 355 nm excitation, 460 nm emission in an Envision microplate reader (PerkinElmer). Reaction rates were determined by linear regression of the resulting progress curves. […] Nonlinear regression fits of the data to a one-site dose response curve were performed using XLFit (IDBS).

[4] = target: thrombin (Homo sapiens (Human), UniProt P00734); assay: Thrombin enzymatic assay; type: biochemical
Description: Thrombin enzymatic assay Assays contained 25 pM thrombin (RD systems: 1473-SE-010), 25 uM BOC—PVR-AMC, 100 nL of test compound in 100% DMSO, in at total of 10 μL of 50 mM Tris, pH 7.0, 100 mM NaCl, 10 mM CaCl2, 0.005% Tween20 in black low volume 384-well plates. The production of AMC was followed at 5 min intervals at 355 nm excitation, 460 nm emission in an Envision microplate reader (PerkinElmer). Reaction rates were determined by linear regression of the resulting progress curves. […] Nonlinear regression fits of the data to a one-site dose response curve were performed using XLFit (IDBS).

[5] = test system: SARS-CoV-2 (WT virus, WA1/2020); assay: Virus replication in Vero-E6 cells, alamar blue viability readout; type: cell-based; conditions: read-out: EC50 against virus replication
[6] = Metabolic stability in mouse liver microsomes
[7] = test system: SARS-CoV-2 WT (WA1/2020); assay: Virus replication in Vero-E6 cells, nucleocapsid immunostaining and high-content imaging, WT; type: cell-based; conditions: for EC50: WT (WA1/2020), 150× TCID50, 48 h, high-content imaging, read-out: EC50 against virus replication
[8] = test system: SARS-CoV-2 Beta (B.1.351); assay: Virus replication in Vero-E6 cells, nucleocapsid immunostaining and high-content imaging, Beta; type: cell-based
[9] = test system: SARS-CoV-2 Delta (B.1.617); assay: Virus replication in Vero-E6 cells, nucleocapsid immunostaining and high-content imaging, Delta; type: cell-based; conditions: for EC50: read-out: EC50 against virus replication
[10] = hamster, in vivo, ip, 10 mg/kg
Description: (§1) The compound was administered as a single dose at 10 mg/kg via intraperitoneal injection formulated in 10% DMSO/10% Solutol® HS15/PBS at 2 mg/mL (FIG. 7).

[11] = Male hamster pharmacokinetic study, plasma and lung; conditions: ip, 10 mg/kg
Description: as §1

[12] = test system: SARS-CoV-2 Omicron (B.1.1.529); assay: Virus replication in Vero-E6 cells, nucleocapsid immunostaining and high-content imaging, Omicron; type: cell-based; conditions: read-out: EC50 against virus replication
[13] = Severe acute respiratory syndrome coronavirus 2, Vero C1008, 96 h, WT (WA1/2020), 96 h, alamar blue viability
[14] = WT (WA1/2020), 96 h, alamar blue viability
[15] = Severe acute respiratory syndrome coronavirus 2, Vero C1008, 48 h

## COc1cccc2[nH]c(C(=O)N[C@@H](CC(C)C)C(=O)N[C@@H](C[C@@H]3CCNC3=O)C(=O)COC(=O)c3c(Cl)cccc3Cl)cc12 [AP-8-001, reference compound]
[1]
  IC50: 11 nM
  incubation time to achieve maximum inhibition: ≤ 10 min
[2]; read-out: CatB IC50
  IC50: 24 ± 7.5 nM
[3]; read-out: CatL IC50
  IC50: 1.8 ± 0.27 nM
[4]
  IC50: > 10000 nM
[5]; [13]
  EC50: 1970 nM
[6]
  half-life: < 2 min

## O=C(CN1C(=O)[C@@H](NC(=O)c2ccccc2)COc2ccccc21)N[C@@H](C[C@@H]1CCNC1=O)C(=O)COC(=O)c1c(Cl)cccc1Cl [AP-8-011, (S)-3-(2-((S)-3-benzamido-4-oxo-3,4-dihydrobenzo[b][1,4]oxazepin-5(2H)-yl)acetamido)-2-oxo-4-((S)-2-oxopyrrolidin-3-yl)butyl 2,6-dichlorobenzoate]
[2]; read-out: CatB IC50
  IC50: 13000 nM
[3]; read-out: CatL IC50
  IC50: > 32000 nM
[4]
  IC50: > 32000 nM
[6]
  half-life: < 2 min

## O=C(CN1C(=O)[C@@H](NC(=O)OCc2ccccc2)COc2ccccc21)N[C@@H](C[C@@H]1CCNC1=O)C(=O)COC(=O)c1c(Cl)cccc1Cl [AP-8-013, (S)-3-(2-((S)-3-(benzyloxycarbonylamino)-4-oxo-3,4-dihydrobenzo[b][1,4]oxazepin-5(2H)-yl)acetamido)-2-oxo-4-((S)-2-oxopyrrolidin-3-yl)butyl 2,6-dichlorobenzoate]
[1]
  incubation time to achieve maximum inhibition: 60 to 120 min
[2]; read-out: CatB IC50
  IC50: 18000 nM
[2]; read-out: Cathepsin B IC50
  IC50: > 15000 nM
[3]; read-out: CatL IC50
  IC50: > 32000 nM
[3]; read-out: Cathepsin L IC50
  IC50: > 15000 nM
[4]
  IC50: > 32000 nM
[7]; WT (USA-WA1/2020), 50× TCID50, 48 h, FIG. 6
  reducing viral load (percent infected live cells): effective
[8]
  reducing viral load (percent infected live cells): effective
[9]
  reducing viral load (percent infected live cells): effective
[5]; [13]
  EC50: < 10000 nM
[5]; [14]
  EC50: 7250 nM
[10]
  clinical symptoms during the in-life phase: no abnormal clinical symptoms
[10]; male
  lung concentration achieved: about 8 μM
[6]
  half-life: < 2 min
[11]
  Kp: 3.2

## N[C@H]1COc2ccccc2N(CC(=O)N[C@@H](C[C@@H]2CCNC2=O)C(=O)COC(=O)c2c(Cl)cccc2Cl)C1=O.O=C(O)C(F)(F)F [AP-9-055, (S)-3-(2-((S)-3-amino-4-oxo-3,4-dihydrobenzo[b][1,4]oxazepin-5(2H)-yl)acetamido)-2-oxo-4-((S)-2-oxopyrrolidin-3-yl)butyl 2,6-dichlorobenzoate 2,2,2-trifluoroacetate]
[6]
  half-life: < 2 min

## CC(C)C[C@H](NC(=O)OCc1ccccc1)C(=O)N[C@@H](C[C@@H]1CCNC1=O)C(O)S(=O)(=O)O (stereo partly drawn) [GC-376]
[7]; [15]
  EC50: 270 nM
[8]; Severe acute respiratory syndrome coronavirus 2, Vero C1008, 48 h, read-out: EC50 against virus replication
  EC50: 290 nM
[9]; [15]
  EC50: 640 nM
[12]; [15]
  EC50: 360 nM
[5]; Severe acute respiratory syndrome coronavirus 2, Vero C1008, 96 h
  EC50: 2050 nM

## CC(C)(C)[C@H](NC(=O)C(F)(F)F)C(=O)N1C[C@H]2[C@@H]([C@H]1C(=O)N[C@H](C#N)C[C@@H]1CCNC1=O)C2(C)C [PF07321332]
[7]
  EC50: 380 nM
[9]
  EC50: 330 nM
[12]
  EC50: 440 nM
[5]; [14]
  EC50: 1570 nM
